How the values were obtained:
Jurkat-Vec cells = assay: Cell growth assay, Jurkat-Vec; assay type: cell-based; conditions: read-out: IC50 cell growth inhibition
Experimental: FIG. 9 presents inhibition of cell growth by embelin in Jurkat-Vec and Jurkat-XIAP cells. The cell growth results are expressed as the percent of control and calculated from the percent of absorbance of treated wells versus that of vehicle control.
Human prostate cancer cell lines (PC-3, LNCap, CL-1, DU-145), and normal human fibroblast cell line WI-38 were obtained from the American Type Culture Collection (ATCC), were grown and maintained in Dulbecco's modified Eagle's medium (DMEM) containing 10% FBS (Invitrogen Corporation). Normal human prostate epithelial cells (PrEC) were obtained from Clonetics (Cambrex Inc., MD) and maintained in the special medium provided by the company. Jurkat T-cells stably transfected with either empty vector (Jurkat-Vec), or XIAP (Jurkat-XIAP) and were cultured in RPMI 1640 containing 10% fetal calf serum and 1 ug/ml puromycin. Cell cultures were maintained in a humidified incubator at 37° C. and 5% CO2.
Cell growth was determined by the MTT-based assay using Cell Proliferation Reagent WST-1 (Roche) according to the manufacturer's instruction. […] Absorbance was measured with a plate reader at […] with correction at […]. The results are expressed as the percent of absorbance of treated wells versus that of vehicle control.

[1] = tested on: caspase-9 in normal PrEC cells; assay: Activation of caspase-9 assay, PrEC; assay type: cell-based, human; conditions: compared to vehicle treated control cells
Experimental: FIGS. 7A and 7B show the activation of caspase-9 by embelin in PC-3 prostate cancer cells and its selectivity in normal prostate epithelial cells. 1×10^6 PC-3 or PrEC cells per well in 6-well culture plates were treated with embelin for 48 hours. An additional control was prepared by adding the pan-caspase inhibitor Z-VAD-FMK (2 uM final) 5 min before adding embelin, to inhibit caspase activation. The cells were collected and stained of active caspase-9 by CaspGLOW Red Active Caspase-9 Staining Kit, and analyzed by flow cytometry in PI channel.
1×10^6 PC-3 cells per well in 6-well culture plates, were treated with various concentrations of embelin, or the same amount of solvent DMSO as vehicle control, for up to 48 hr. An additional control was prepared by adding the pan-caspase inhibitor Z-VAD-FMK (1 uM final) 5 min before adding embelin, to inhibit caspase activation. The cells were collected for staining of active caspase-9 by CaspGLOW Red Active Caspase-9 Staining Kit (BioVision, Inc., Mountain View, Calif.) according to the manufacturer's instructions, with modification. […] The cells were resuspended in 0.3 ml Binding Buffer and analyzed by flow cytometry, using PI channel for active caspase-9 and FITC channel for apoptosis.

Jurkat-XIAP cells = assay: Annexin V-FITC apoptosis assay, Jurkat-XIAP; assay type: cell-based; conditions: combination with etoposide, 15 hours
Experimental: FIGS. 8A and 8B present (A): Dose-dependent induction of apoptosis by etoposide in Jurkat cells transfected with vector control (Jurkat-Vec) and stably transfected with XIAP (Jurkat-XIAP cells); and (B): Induction of apoptosis by etoposide and embelin alone and in combination in Jurkat-Vec and Jurkat-XIAP cells. 1×10^6 Jurkat-XIAP or Jurkat-Vec cells per well in 6-well culture plates were treated with etoposide and embelin alone, or in combination for 15 hours, then stained with Annexin V-FITC and propidium iodide for apoptosis by flow cytometry. The results are shown as percent of Annexin V-FITC positive apoptotic cells.
PC-3 cells, 1×10^6 cells per well in 6-well culture plates, were treated in triplicate with various concentrations of embelin for 24 or 48 hours, then trypsinized and washed with PBS. For Jurkat cells, 1×10^6 Jurkat-XIAP or Jurkat-Vec cells per well in 6-well culture plates, were treated with etoposide, embelin, or both for 15 hours. For flow cytometry apoptosis assay, cells were stained with Annexin V-FITC and propidium iodide using the Annexin-V-FLUOS Kit (Roche) according to the manufacturer's instruction. The fluorescence of Annexin V-FITC and propidium iodide of individual cells was analyzed by FACScan. The results are shown as percent of Annexin V-FITC positive apoptotic cells.

IC50 (Jurkat-Vec cells): 20 µM
SMILES: CCCCCCCCCCCC1=C(O)C(=O)C=C(O)C1=O [embelin]
activation of caspase-9 in normal PrEC [1]: no significant effect | activation of caspase-9 in normal PrEC ([1]; listed as Embelin): minimal effects | percentage of apoptotic cells in combination, compared to either drug alone (Jurkat-XIAP cells): significantly increased
